Data published in patent publication US20240400572A1, “COMPOUNDS AND METHODS FOR TREATING CANCERS THAT ARE MGMT DEFICIENT REGARDLESS OF MMR STATUS” (Yale University, priority 2021, published 2024).
Entries after “also recorded” stand apart in the source; their conditions may differ.

Legend:
[1] = system: Isogenic glioma (Ln 229) cells, MGMT−/MMR−; assay: Clonogenic Survival Assay (FIG. 9); format: cell-based, human; details: identical concentrations of test compound
Experimental: Clonogenic Survival Assay (FIG. 9): Isogenic glioma (Ln 229) cells were pretreated with the test drug in culture for 48-72 hours at the specified dilutions. Cells were then transferred in media without drug to 6-well plates in triplicate at 3-fold dilutions ranging from 9,000 to 37 cells per well. After 14 days, plates were washed with PBS and stained with crystal violet. Colonies were counted by hand. Counts were normalized to plating efficiency of the corresponding treatment condition.

[2] = system: LN229 MGMT+/−, MMR+/− cells; assay: Clonogenic cell survival assay; details: cell status given in the value
Experimental: Cells were trypsinized, washed, counted, and diluted in a medium containing various concentrations of drug. They were then immediately seeded in six-well plates in triplicate at three-fold dilutions, ranging from 9000 to 37 cells per well. Depending on colony size, these plates were kept in the incubator for 10 to 14 days. After incubation, colonies were washed in phosphate-buffered saline (PBS), stained with crystal violet, counted, and quantified.

[3] = system: LN229 WT and LN229-MSH2^− flank tumors; assay: Xenograft Experiments (FIG. 11); format: in vivo, mouse; details: 5 mg/kg gavage, Mondays, Wednesdays and Fridays for 3 weeks
Experimental: Xenograft Experiments (FIG. 11): All animal studies were approved by the Institutional Animal Use and Care Committee and performed in accordance with the Guide for the Care and Use of Laboratory Animals. LN229 WT and LN229-MSH2^− cell lines were maintained in DMEM media supplemented with 10% fetal bovine serum. Three-four-week-old female athymic nude Foxnnu mice were obtained from Envigo and each mouse was inoculated subcutaneously with tumor cells (4.5-5×10^6) in 0.1 ml of PBS with Matrigel (1:1). Wild type cells were injected on the right flank and mutant cells were injected on the left flank. The tumors were then grown to a mean size of approximately 50-100 mm3 and the mice were then split into groups and treated as detailed in FIG. 7. Gavage doses of 5 mg/kg of KL-50 or TMZ were prepared by diluting stocks in DMSO with 10% cyclodextrin. Compound was administered each day of dosing at a volume of 100 μL/mouse. Mice were treated for 3 weeks with dosing on Mondays, Wednesdays and Fridays. Tumors were measured 3 times a week during treatment and during the washout period of 2 weeks. Xenograft tumors were measured by calipers and volume was calculated using the equation for ellipsoid volume: Volume=0.523×(length)×(width)^2. Statistical Analysis: Analysis of variance (ANOVA) was used to test for significant differences between groups. Post-hoc Bonferroni multiple comparison test analysis was used to determine significant differences among means. All statistical analysis was accomplished using Graph Pad Prism 8.2.0 software.

[4] = system: γH2AX, 53BP1 and pRPA foci in LN229 MGMT+/−, MMR+/− cells; assay: Immunofluorescence foci assays; format: cell-based, human; details: 20 μM; for γH2AX, 53BP1 and pRPA foci formation (in words): 2 to 48 h; for DDR foci across cell cycle phases (in words): 48 h, G1, S and G2 phases
Experimental: Immunofluorescence Foci Assays. High-throughput immunofluorescence foci assays were performed at the Yale Center for Molecular Discovery (YCMD). Cells were seeded at 2000 cells/well in black polystyrene flat bottom 384-well plates (Greiner Bio-One) and allowed to adhere overnight. Compound addition was performed utilizing a Labcyte Echo 550 liquid handler (Beckman Coulter), with 6 replicates per test condition and 12 replicates per control condition. Following drug incubation, cells were fixed and stained for phospho-SER139-H2AX (γH2AX), 53BP1, or phospho-SER33-RPA2 (pRPA) as follows.
γH2AX protocol: Cells were fixed with 4% paraformaldehyde in 1×PBS for 15 min, washed twice with 1×PBS, incubated in extraction buffer (0.5% Triton X-100 in 1×PBS) for 10 min, washed twice with 1×PBS, and incubated in blocking buffer (Blocker Casein in PBS, Thermo Scientific+5% goat serum, Life Technologies) for 1 h. Mouse anti-phospho-histone H2A.X (Ser139) antibody (clone JBW301, Millipore, 05-636) was added 1/1000 in blocking buffer at 4° C. overnight. After washing with 1×PBS, cells were incubated with goat anti-mouse IgG (H+L) highly cross-adsorbed secondary antibody, Alexa Fluor 647 (Invitrogen, A-21236) 1/500 and with 1 μg/mL Hoechst nucleic acid dye in blocking buffer for 2 h, and then washed with 1×PBS.
53BP1 protocol: Cells were fixed with 4% paraformaldehyde+0.02% Triton X-100 in 1×PBS for 20 minutes, washed twice with 1×PBS, and incubated in blocking buffer (10% FBS, 0.5% Triton X-100 in 1×PBS) for 1 h. Rabbit anti-53BP1 antibody (Novus Biologicals, NB100-904) was added 1/1000 in blocking buffer at 4° C. overnight. After washing with 1×PBS, cells were incubated with goat anti-rabbit IgG (H+L) highly cross-adsorbed secondary antibody, Alexa Fluor 647 (Invitrogen, A-21245) 1/500 and with 1 μg/mL Hoechst nucleic acid dye in blocking buffer for 2 h, and then washed with 1×PBS.
pRPA protocol: Cells were washed twice with 1×PBS on ice, incubated in extraction buffer (0.5% Triton X-100 in 1×PBS) for 5 min on ice, fixed with 3% paraformaldehyde+2% sucrose in 1×PBS for 15 min at 23° C., incubated again in extraction buffer for 5 min on ice, and incubated in blocking buffer (2% BSA, 10% milk, 0.1% Triton X-100 in 1×PBS) for 1 h at 23° C. Rabbit anti-phospho-RPA2 (S33) antibody (Bethyl Laboratories, A300-246A) was added 1/1000 in blocking buffer at 4° C. overnight. […]
Additional small scale immunofluorescence assays used for extended time course analysis of γH2AX foci were performed in Millicell EZSLIDE 8-well chamber slides (Millipore). […] Imaging was performed on a Keyence BZ-X800 fluorescence microscope at 40× magnification. […]

Row | SMILES | cells survived [1] | clonogenic survival (in words) [2] | activity in MGMT−/MMR (MSH2)− tumors (in words) [3] | γH2AX, 53BP1 and pRPA foci formation (in words) [4] | DDR foci across cell cycle phases (in words) [4] | cells survived (fraction) [1] | activity in MGMT−/MMR (MSH2)+ tumors (in words) [3]
1 | Cn1nnc2c(C(N)=O)ncn2c1=O [TMZ, temozolomide, reference compound] | about 100% | negligible activity in MGMT+LN229 cells, irrespective of MMR status; also recorded: robust tumor cell killing in MGMT−, MMR+ cells that was abolished in isogenic cells lacking MMR | ineffective | comparable response in MGMT− cells, but this was abolished in the absence of functional MMR | did not observe foci induction or micronuclei formation in MGMT−/MMR− cells | – | –
2 | NC(=O)c1ncn2c(=O)n(CCF)nnc12 [KL-50, 3-(2-fluoroethyl)-4-oxo-3H,4H-imidazo[4,3-d][1,2,3,5]tetrazine-8-carboxamide] | – | robust antitumor activity in MGMT− cells, independent of MMR status; also recorded: minimal toxicity to MGMT+ cells at doses up to at least 200 μM | surprisingly effective | maximal foci response at 48 h, specifically in MGMT− cells and irrespective of MMR status | foci formation primarily in the S- and G2-phases of the cell cycle | less than 10^−4 | comparable activity to TMZ
